Like-named read-outs stand apart in the source and are kept apart here.
Tests used:
[1] = tested on: YAP-TEAD transcription complex; experiment: YAP-TEAD reporter gene assay (dual luciferase, stably transfected 293T cells); type: cell-based; settings: Homo sapiens, HEK-293T; 293T reporter cells, 24 h of drug treatment; read-out: IC50
Protocol: YAP-TEAD reporter gene The YAP-TEAD reporter gene assay was performed as follows. Firstly, the 8xGTIIC promoter sequence ([…] GTACTGTTGGTAAA) was constructed into a pGL4.20(luc2-Puro) plasmid, and the TK promoter ([…]) unrelated to the hippo pathway was constructed into a pGL4.78(hRlucCP/Hygro) plasmid, thereby constructing stably transfected 293T cells that can stably and continuously express the transcriptional activity of the YAP-TEAD transcription complex. After selection and identification of individual clones, the clones were grown and maintained in a DMEM medium containing 10% fetal bovine serum, penicillin-streptomycin solution, 1 µg/mL puromycin, and 150 µg/mL hygromycin. To perform reporter gene assays with the compounds to be tested, the well-growing cells described above were plated in a 384-well plate at a cell density of 3000 cells per well, with 90 µL per well. The periphery was sealed with an appropriate amount of PBS to prevent evaporation of water from the peripheral wells. Administration was performed on the next day after the cell plating. The test compounds were added at different concentration gradients, and three replicate wells were set for each concentration point. The compound concentration started at 5 µM and was diluted seven times with a 5-fold gradient. A corresponding negative control group treated with DMSO was also set up. After 24 h of drug treatment, the detection reagents were prepared first. The Dual-Lumi™ Firefly luciferase detection reagent and Dual-Lumi™ Renilla luciferase detection buffer were dissolved and brought to room temperature. […]. According to the amount of 100 µL of Dual-Lumi™ Renilla luciferase detection working solution required for the detection of each sample, an appropriate amount of Dual-Lumi™ Renilla luciferase detection working solution was prepared. […]. The cell culture plate was taken out and allowed to equilibrate at room temperature for 10 min (usually no more than 30 min). Then, 100 µL of Dual-Lumi™ Firefly luciferase detection reagent was added to each well of a 96-well plate (25 µL per well for the 384-well plate), and the mixture was mixed well. The mixture was then incubated at room temperature (about 25 °C) for 10 min to stabilize the luminescent signal, and then chemiluminescence was detected using a multimode microplate reader with a chemiluminescence detection function. Subsequently, the detection of Renilla luciferase began. Firstly, 100 µL of Dual-Lumi™ Renilla luciferase detection working solution was added to each well of a […] (25 µL per well for the 384-well plate), and the mixture was mixed well. The mixture was then incubated at room temperature (about 25 °C) for 10 min to stabilize the luminescent signal. Finally, chemiluminescence was detected using a multimode microplate reader with a chemiluminescence detection function. The obtained data were analyzed using GraphPad Prism 7.0 software. A sigmoidal dose-survival rate curve was plotted using a non-linear regression model, and the IC50 values were calculated.

[2] = tested on: NCI-H2452 (NF2 wide-type); experiment: Inhibition of cell proliferation (CellTiter-Lumi); type: cell-based; settings: Homo sapiens, 72 h + another 72 h treatment
Protocol: (§1) NCI-H2052 (NF2 mutant), NCI-H226 (NF2 mutant), NCI-H2452 (NF2 wide-type), NCI-H28 (NF2 wide-type), and MSTO-211H (NF2 wide-type) cells were cultured in RPMI 1640 complete media.
(§2) The normally growing cells described above were digested with a trypsin cell-digesting solution, centrifuged, counted, and then plated in a 96-well plate at a density of 1000 cells per well. Administration was performed 24 h after the cell plating. Inhibitors at different concentration gradients were added at 10 µL per well, and three replicate wells were set for each concentration point. The starting concentration was 20 µM and diluted 8 times with a 4-fold gradient. A corresponding negative control group treated with 0.1% DMSO was also set up. After 72 h of drug treatment, the cell culture plate to be tested was taken out of the incubator. The culture medium in the 96-well plate was pipetted, and 190 µL of fresh RPMI 1640 complete medium was added. Another administration was performed, and the cells were cultured for another 72 h. The 96-well plate was taken out and allowed to equilibrate at room temperature for 10 min. […] After shaking for two minutes, the mixture was reacted at room temperature for 10 min. Then, 150 µL of liquid was pipetted from the transparent 96-well plate and transferred to a white 96-well plate for chemiluminescence reading. The background value was subtracted from the value for each well to calculate the cell survival rate. Survival rate (%) = […]. Sample is the chemiluminescence of the drug-treated group, and Vehicle is the […] of the DMSO control group. A sigmoidal dose-survival rate curve was plotted using a non-linear regression model in the GraphPad Prism 7.0 software, and the IC50 values or GI50 values were calculated.

NCI-H28 (NF2 wide-type) = experiment: Inhibition of cell proliferation (CellTiter-Lumi); type: cell-based; settings: Homo sapiens, 72 h + another 72 h treatment
Protocol: as §1, §2

[3] = Pharmacokinetic test in mice (low dose); type: in vivo, Balb/c mice; settings: mouse, plasma, mice; for AUC(0-t): read-out: AUClast; for half-life: read-out: T1/2 (converted)
Protocol: The compounds of the present disclosure were administered to Balb/c mice by single intravenous injection and oral gavage, and the plasma of the mice at each time point was collected. The concentration of the compounds to be tested in BALB/C plasma was detected using the LC-MS/MS analysis method, and pharmacokinetic analysis was performed.
The mixture was vortexed, shaken, and ultrasonicated. The remaining volume of 25% sulfobutylether-β-cyclodextrin (sterilized) was added to prepare the final concentration solution or suspension.
Intravenous injection formulations will be directly administered in animal experiments without filtration. The IV drug preparation vials were disinfected in an infrared sterilization cabinet one day in advance.
Intravenous injection: Administration was performed via the tail vein. After the needle was inserted, the syringe was slowly […].
Gavage: Gavage needle and syringe of an appropriate type were selected. The gavage needle was inserted from the root of the tongue into the esophagus until it reached near the cardia of the stomach, then the drug formulation was injected, and the gavage needle was withdrawn. When disposable plastic gavage needles were used, one needle was used for each group.
At each time point, 60 µL of whole blood was collected from the submandibular vein or tail vein (except for the IV group). The blood sample was added to a pre-cooled anticoagulant blood collection tube containing anticoagulant EDTA-K2 (1 µL, 15% EDTA-K2 solution), placed on wet ice, and centrifuged (3000 g, 4 °C, 10 min) within 1 h. The plasma was immediately collected after centrifugation, transferred to an EP tube, and stored at -90 °C to -60 °C.
Plasma concentration detection: A developed LC-MS/MS method was used to detect the compounds in plasma.
The plasma concentration-time data were analyzed using a non-compartmental model in the Phoenix® WinNonlin® (Version 8.2, Pharsight, Mountain View, CA).

[4] = tested on: MSTO-211H (NF2 wide-type); experiment: Inhibition of cell proliferation (CellTiter-Lumi); type: cell-based; settings: Homo sapiens, 72 h + another 72 h treatment
Protocol: as §1
The normally growing cells described above were digested with a trypsin cell-digesting solution, centrifuged, counted, and then plated in a 96-well plate at a density of 1000 cells per well. Administration was performed 24 h after the cell plating. Inhibitors at different concentration gradients were added at 10 µL per well, and three replicate wells were set for each concentration point. The starting concentration was 20 µM and diluted 8 times with a 4-fold gradient. A corresponding negative control group treated with 0.1% DMSO was also set up. After 72 h of drug treatment, the cell culture plate to be tested was taken out of the incubator. The culture medium in the 96-well plate was pipetted, and 190 µL of fresh RPMI 1640 complete medium was added. Another administration was performed, and the cells were cultured for another 72 h. The 96-well plate was taken out and allowed to equilibrate at room temperature for 10 min. The medium in the 96-well plate was pipetted, and 200 µL of CellTiter-Lumi™ luminescent cell viability detection solution (mixed with a medium in a ratio of 1:1) was added. After shaking for two minutes, the mixture was reacted at room temperature for 10 min. Then, 150 µL of liquid was pipetted from the transparent 96-well plate and transferred to a white 96-well plate for chemiluminescence reading. The background value was subtracted from the value for each well to calculate the cell survival rate. Survival rate (%) = […]. Sample is the chemiluminescence of the drug-treated group, and Vehicle is the […] of the DMSO control group. A sigmoidal dose-survival rate curve was plotted using a non-linear regression model in the GraphPad Prism 7.0 software, and the IC50 values or GI50 values were calculated.

IC50 [1]: 123 nM
IC50 [2]: > 5000 nM
IC50 (NCI-H28 (NF2 wide-type)): > 1250 nM
MRT ([3]; IV 2 mg/kg): 6.4 h
AUC(0-t) ([3]; IV 2 mg/kg): 9.23 µM·h
clearance ([3]; IV 2 mg/kg, read-out: Cl (converted)): 8.33 mL/min/kg
half-life ([3]; IV 2 mg/kg): 6.3 h
MRT ([3]; PO 10 mg/kg): 5.3 h
bioavailability ([3]; PO 10 mg/kg vs IV 2 mg/kg, read-out: F%): 163%
AUC(0-t) ([3]; PO 10 mg/kg): 79 µM·h
Cmax ([3]; PO 10 mg/kg, read-out: Cmax): 9.36 µM
half-life ([3]; PO 10 mg/kg): 3.3 h
SMILES: CP(C)(=O)c1ccc2c(c1)c1ncccc1n2-c1ccc(C(F)(F)F)cc1 [Example 4]
IC50 [4]: > 1250 nM

From patent publication EP4596561A1, “PHOSPHORUS-CONTAINING COMPOUND, PHARMACEUTICAL COMPOSITION AND USE THEREOF” (Suzhou Genhouse Bio Co., Ltd., priority 2022, dated 2024)
